Test [1] concerns the target T1, G-prodeshotein coupled receptor 4 (Homo sapiens, UniProt P46093). Kind of test: Antagonist activity at N-terminal HA-tagged GPR4 (unknown origin) expressed in HEK293 cells assessed as pH dependent cAMP response element-driven transcriptional activity ratio at 10 uM at pH 7.2 incubated for 6 hrs by dual luciferase reporter gene assay relative to untreated control. Format: functional, cell-based. A general note: Reporter assays use an easily measured gene product as a stand-in for the process of interest.
Target sequence in this assay (P46093 whole entry, looked up): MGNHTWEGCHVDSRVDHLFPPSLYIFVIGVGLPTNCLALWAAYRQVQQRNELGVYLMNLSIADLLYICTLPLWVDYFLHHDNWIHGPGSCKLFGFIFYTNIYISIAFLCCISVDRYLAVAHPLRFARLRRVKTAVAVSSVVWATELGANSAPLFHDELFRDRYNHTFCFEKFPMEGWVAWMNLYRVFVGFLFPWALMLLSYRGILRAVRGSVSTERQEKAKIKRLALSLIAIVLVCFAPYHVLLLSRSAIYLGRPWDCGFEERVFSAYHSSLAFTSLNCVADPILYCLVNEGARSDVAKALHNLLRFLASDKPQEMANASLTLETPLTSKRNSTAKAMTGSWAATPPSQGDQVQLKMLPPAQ

Test [2] concerns the target T1, G-prodeshotein coupled receptor 4. Nature of the test: Antagonist activity at N-terminal HA-tagged GPR4 (unknown origin) expressed in HEK293 cells assessed as inhibition of pH dependent cAMP response element-driven transcriptional activity at pH 7.2 incubated for 6 hrs by dual luciferase reporter gene assay. The format is functional, cell-based.
Target sequence in this assay (P46093 whole entry): as the sequence (P46093 whole entry, looked up) above
In test [3] the target is T2, G-protein coupled receptor 65 (Homo sapiens, UniProt Q8IYL9). Nature of the test: Antagonist activity at N-terminal HA-tagged TDAG8 receptor (unknown origin) expressed in HEK293 cells assessed as inhibition of pH dependent cAMP response element-driven transcriptional activity at pH 7.2 incubated for 6 hrs by dual luciferase reporter gene assay. The format is functional, cell-based.

Test [4] deals with T3, G-protein coupled receptor 68 (Homo sapiens, UniProt Q15743). Nature of the test: Antagonist activity at N-terminal HA-tagged OGR1 (unknown origin) expressed in HEK293 cells assessed as inhibition of pH dependent nuclear factor of activated T-cell activity at pH 7.2 incubated for 6 hrs by dual luciferase reporter gene assay. The format is cell-based.
Test [5] relates to Mus musculus. Nature of the test: Increase in survival of C57BL/6J mouse permanent left anterior descending coronary artery ligation model of myocardial infarction assessed as survival rate at 6.7 mg/kg/day, ip bid dosed from 1 day before to 7 day after myocardial infarction without operation day measured up to 28 days (reference value: 14.3 %). The format is functional.
Test [6] has as its system Mus musculus. Nature of the test: Increase in survival of C57BL/6J mouse permanent left anterior descending coronary artery ligation model of myocardial infarction assessed as survival rate at 20 mg/kg/day, ip bid dosed from 1 day before to 7 day after myocardial infarction without operation day measured up to 28 days (reference value: 14.3 %). The format is functional.

The target of test [7] is T2, G-protein coupled receptor 65. Nature of the test: Antagonist activity at N-terminal HA-tagged TDAG8 receptor (unknown origin) expressed in HEK293 cells assessed as inhibition of pH dependent cAMP response element-driven transcriptional activity at >1 uM at pH 7.2 incubated for 6 hrs by dual luciferase reporter gene assay. The format is functional, cell-based.
Test [8] deals with T3, G-protein coupled receptor 68. Nature of the test: Antagonist activity at N-terminal HA-tagged OGR1 (unknown origin) expressed in HEK293 cells assessed as inhibition of pH dependent nuclear factor of activated T-cell activity at >1 uM at pH 7.2 incubated for 6 hrs by dual luciferase reporter gene assay. Format: cell-based.

Active and inactive are the calls of the source. The rule behind the calls is not given here.

T2 sequence (Q8IYL9 whole entry): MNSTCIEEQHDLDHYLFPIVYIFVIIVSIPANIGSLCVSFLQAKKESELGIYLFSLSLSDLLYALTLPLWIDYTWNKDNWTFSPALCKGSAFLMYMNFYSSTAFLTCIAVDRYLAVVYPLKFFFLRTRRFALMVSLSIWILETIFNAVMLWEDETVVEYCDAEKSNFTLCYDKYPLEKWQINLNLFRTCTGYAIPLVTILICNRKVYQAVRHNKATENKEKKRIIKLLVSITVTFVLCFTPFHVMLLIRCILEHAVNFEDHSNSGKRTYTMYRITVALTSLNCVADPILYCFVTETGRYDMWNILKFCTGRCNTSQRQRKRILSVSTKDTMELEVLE
T3 sequence (Q15743 whole entry): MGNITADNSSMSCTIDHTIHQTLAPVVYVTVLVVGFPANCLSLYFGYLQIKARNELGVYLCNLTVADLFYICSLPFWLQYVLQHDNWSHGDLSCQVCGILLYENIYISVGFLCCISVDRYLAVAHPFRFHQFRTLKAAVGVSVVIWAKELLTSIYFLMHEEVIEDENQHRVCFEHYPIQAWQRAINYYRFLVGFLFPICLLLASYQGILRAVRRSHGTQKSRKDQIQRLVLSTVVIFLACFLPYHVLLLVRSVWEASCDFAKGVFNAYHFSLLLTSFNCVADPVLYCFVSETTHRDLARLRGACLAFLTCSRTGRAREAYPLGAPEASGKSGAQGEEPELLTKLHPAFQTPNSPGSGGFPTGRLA

For the compound `CCc1nc2c(C)cc(C)nc2n1Cc1ccc2c(c1)CCc1cc(CN3CCOCC3)ccc1N2`, the Ratio in test [1] is 0.41.
On the same count and under the same terms, the figure for `Cc1nc2ccccc2n1Cc1ccc2c(c1)CCc1ccccc1N2` is 0.57.
As for `CCc1nc2c(C)cc(C)nc2n1Cc1ccc2c(c1)CCc1cc(CN3CCCCC3)ccc1N2`, in test [1], the Ratio is 0.39. Further, the figures for the IC50 in test [2], in test [3] and in test [4] were 67 nM, > 10000 nM and > 10000 nM, respectively. Further, in the test with Mus musculus [5], the survival at 6.7 mg/kg/day worked out at 100%. For the same compound, in the test with Mus musculus [6], the survival at 20 mg/kg/day is 62.5%.
As to `CCc1nc2ccccc2n1Cc1ccc2c(c1)CCc1ccccc1N2`, the Ratio in test [1] was 0.44. In addition, the 50% inhibitory concentration (IC50) – broadly, the concentration at which inhibition is half-maximal – in test [2] is > 10000 nM.
With `c1ccc2c(c1)CCc1cc(Cn3ccnc3)ccc1N2`, the Ratio in test [1] turned out to be 1.11.
`CCc1nc2c(C)cc(C)nc2n1Cc1ccc(Nc2ccccc2)cc1`: the Ratio in test [1] came to 0.54. Moreover, the IC50 in test [2] was > 10000 nM.
With `c1ccc2c(c1)CCc1cc(Cn3c4ccccc4c4ccccc43)ccc1N2`, the Ratio in test [1] came out at 1.03.
Consider `CCc1nc2c(C)cc(C)nc2n1Cc1ccc2c(c1)CCc1cc(CN3CCCC3)ccc1N2`, for which the Ratio in test [1] was determined as 0.4.
Take `CCc1nccn1Cc1ccc2c(c1)CCc1ccccc1N2`: the Ratio in test [1] is 1.22.
For `CCc1nc2c(C)cc(C)nc2n1Cc1ccc2c(c1)CCc1cc(CN3CCN(C)CC3)ccc1N2`, the Ratio in test [1] amounted to 0.42. Moreover, in test [2], the 50% inhibitory concentration (IC50) was 130 nM. Further, the inhibition result in test [7] and in test [8] was “Active” throughout.
As for `CCc1nc2c(C)cc(C)nc2n1Cc1ccc2ccccc2c1`, in test [1], the Ratio was found to be 0.52.
Regarding `CCc1nc2c(C)cc(C)nc2n1Cc1ccc2c(c1)CCc1ccccc1N2`, the Ratio in test [1] turned out to be 0.22. Moreover, in test [2], the IC50 was determined as 900 nM.
On the same counts, the results for `CCc1nc2c(C)cc(C)nc2n1Cc1ccc2c(c1)Sc1ccccc1N2` are 0.38 and 910 nM.
In the case of `c1ccc2c(c1)CCc1cc(Cn3ccc4ccccc43)ccc1N2`, the Ratio in test [1] came out at 0.44.
In the case of `Cc1nccn1Cc1ccc2c(c1)CCc1ccccc1N2`, the Ratio in test [1] is 1.24.
As for `c1ccc2c(c1)CCc1cc(Cn3cnc4ccccc43)ccc1N2`, the Ratio in test [1] is 0.52. Moreover, in test [2], the IC50 is > 10000 nM.
In the case of `CCc1nc2c(C)cc(C)nc2n1Cc1ccccc1`, in test [1], the Ratio turned out to be 0.72.
Still for that read-out and setting: as for `CCc1nc2c(C)cc(C)nc2n1Cc1ccc2c(c1)C=Cc1ccccc1N2`, the figure is 0.36.

For the origin of these results see ChEMBL document CHEMBL3808277, “Identification of a Potent and Selective GPR4 Antagonist as a Drug Lead for the Treatment of Myocardial Infarction” (ACS Med Chem Lett, 2016).
